Assay results: patent US20240269298A1, “PHOSPHONYL DERIVATIVE, AND COMPOSITION AND PHARMACEUTICAL APPLICATION THEREOF” (XIZANG HAISCO PHARMACEUTICAL CO., LTD., priority 2021, published 2024)
Read-outs that look alike come from different tables or passages of the source.

Assays:
[1] = system: NCI-H1975 (EGFR-L858R-T790M) cells; assay: Inhibitory activity on proliferation of NCI-H1975 (EGFR-L858R-T790M) cells (CTG, 72 h); format: cell-based; details: Homo sapiens
Method in brief: (§1)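 Cells plated at 1000/well (NCI-H1975, RPMI1640+10% FBS) or 3000/well (A431, DMEM+10% FBS), dosed next day with compounds (0.1% DMSO final) for 72 h at 37 °C, 5% CO2. Viability by CTG luminescence, normalised to vehicle control; IC50 from nonlinear-regression dose-survival curves.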

A431 (EGFR-WT) cells = assay: Inhibitory activity on proliferation of A431 (EGFR-WT) cells (CTG, 72 h); format: cell-based; details: Homo sapiens, A-431
Method in brief: as §1

[2] = Pharmacokinetic test in mice; format: in vivo; details: male, ICR, mouse, po, administration i.g. (10 mg/kg), plasma
Description: Test objective: In this experiment, a single dose of test compounds was administered to ICR mice intravenously and intragastrically, the concentrations of the test compounds in plasma of mice were measured, and the pharmacokinetic characteristics and bioavailability of the test compounds in mice were evaluated.
Experimental animals: male ICR mice, 20-25 g, purchased from BEIJING HFK BIOSCIENCE CO., LTD. with the laboratory animal production license number of SCXK (JING) 2019-0008; or purchased from CHENGDU DDOSSY EXPERIMENTAL ANIMALS CO., LTD. (SCXK (CHUAN) 2020-030); or purchased from HUNAN SJA LABORATORY ANIMAL CO., LTD. (SCXK (XIANG) 2019-0004).
Experimental method: on the day of the experiment, ICR mice were randomly grouped according to their body weights. The mice were fasted with water available for 12 to 14 hours one day before the administration, and were fed 4 hours after the administration.
Sampling: before and after the administration, blood was taken from the orbits of the mice under isoflurane anesthesia, and placed in an EDTAK2 centrifuge tube. Centrifugation was carried out at 5000 rpm at 4° C. for 10 min, and the plasma was collected.
Time points for plasma collection in G1&G2 groups: 0, 5 min, 15 min, 30 min, 1h, 2h, 4h, 6h, 8h, and 24 h; • time points for plasma collection in G3 group: 0, 5 min, 15 min, 30 min, 1 h, 2 h, 4 h, 6h, 8h, and 24 h; • before analysis and detection, all samples were stored at −80° C. The samples were analyzed quantitatively by LC-MS/MS.

[3] = read-out: IC50 (value in brackets)

Compound | IC50 ([1]; read-out: IC50 (class symbol)) | IC50 [1, 3] | IC50 (A431 (EGFR-WT) cells) | AUC [2] | half-life [2] | AUC(0-t) [2]
COc1cc(N2CCN(c3ccc4c(c3)C(=O)N(C3CCC(=O)NC3=O)C4=O)CC2)c(-c2cnn(C)c2)cc1Nc1ncc(Br)c(Nc2ccc(-c3ccccc3)cc2P(C)(C)=O)n1 (stereo not drawn) [Compound 80, 5-(4-(4-((5-bromo-4-((3-(dimethylphosphoryl)-[1,1′-biphenyl]-4-yl)amino)pyrimidin-2-yl)amino)-5-methoxy-2-(1-methyl-1H-pyrazol-4-yl)phenyl)piperazin-1-yl)-2-(2,6-dioxopiperidin-3-yl)isoindoline-1,3-dione] | 100 to 500 nM | 129 nM | ≥ 10000 nM | 81900 ng·h/mL | 10.4 h | 
COc1cc(N2CCC(N3CCN(CC4CCN(c5ccc6c(c5)C(=O)N(C5CCC(=O)NC5=O)C6=O)CC4)CC3)CC2)c(-c2cnn(C)c2)cc1Nc1ncc(Br)c(Nc2ccc(C)c(C)c2P(C)(C)=O)n1 (stereo not drawn) [Compound 73, 5-(4-((4-(1-(4-((5-bromo-4-((2-(dimethylphosphoryl)-3,4-dimethylphenyl)amino)pyrimidin-2-yl)amino)-5-methoxy-2-(1-methyl-1H-pyrazol-4-yl)phenyl)piperidin-4-yl)piperazin-1-yl)methyl)piperidin-1-yl)-2-(2,6-dioxopiperidin-3-yl)isoindoline-1,3-dione] | < 100 nM | 26 nM | ≥ 10000 nM |  |  | 13700 ng·h/mL
COc1cc(N2CCC(N3CCC4(CCCN(c5cc6c(cc5F)C(=O)N(C5CCC(=O)NC5=O)C6=O)C4)CC3)CC2)c(-c2cnn(C)c2)cc1Nc1ncc(Br)c(Nc2ccc(-c3ccccc3)cc2P(C)(C)=O)n1 (stereo not drawn) [Compound 88, 5-(9-(1-(4-((5-bromo-4-((3-(dimethylphosphoryl)-[1,1′-biphenyl]-4-yl)amino)pyrimidin-2-yl)amino)-5-methoxy-2-(1-methyl-1H-pyrazol-4-yl)phenyl)piperidin-4-yl)-2,9-diazaspiro[5.5]undecan-2-yl)-2-(2,6-dioxopiperidin-3-yl)-6-fluoroisoindoline-1,3-dione] | < 100 nM | 67 nM | ≥ 10000 nM |  |  | 5120 ng·h/mL
COc1cc(N2CCN(c3ccc4c(c3)C(=O)N(C3CCC(=O)NC3=O)C4=O)CC2)c(-c2cnn(C)c2)cc1Nc1ncc(Cl)c(Nc2ccc(-c3ccccc3)cc2P(C)(C)=O)n1 (stereo not drawn) [Compound 98, 5-(4-(4-((5-chloro-4-((3-(dimethylphosphoryl)-[1,1′-biphenyl]-4-yl)amino)pyrimidin-2-yl)amino)-5-methoxy-2-(1-methyl-1H-pyrazol-4-yl)phenyl)piperazin-1-yl)-2-(2,6-dioxopiperidin-3-yl)isoindoline-1,3-dione] | 100 to 500 nM | 101 nM | ≥ 10000 nM | 69800 ng·h/mL | 10.9 h | 
COc1cc(N2CCC3(CCN(c4ccc5c(c4)C(=O)N(C4CCC(=O)NC4=O)C5=O)CC3)CC2)c(-c2cnn(C)c2)cc1Nc1ncc(Br)c(Nc2ccc(F)cc2P(C)(C)=O)n1 (stereo not drawn) [Compound 163, 5-(9-(4-((5-bromo-4-((2-(dimethylphosphoryl)-4-fluorophenyl)amino)pyrimidin-2-yl)amino)-5-methoxy-2-(1-methyl-1H-pyrazol-4-yl)phenyl)-3,9-diazaspiro[5.5]undecan-3-yl)-2-(2,6-dioxopiperidin-3-yl)isoindoline-1,3-dione] | < 100 nM | 76 nM | ≥ 10000 nM | 93100 ng·h/mL | 6.68 h | 

Results, then the compound that gave them:

IC50 ([1]; read-out: IC50 (class symbol)) | IC50 [1, 3] | IC50 (A431 (EGFR-WT) cells) | AUC [2] | half-life [2] | AUC(0-t) [2] | Compound
< 100 nM | 31 nM | ≥ 10000 nM |  |  | 19600 ng·h/mL | COc1cc(N2CCC(N3CCN(CC4CCN(c5ccc6c(c5)C(=O)N(C5CCC(=O)NC5=O)C6=O)C4)CC3)CC2)c(-c2cnn(C)c2)cc1Nc1ncc(Br)c(Nc2ccc(-c3ccccc3)cc2P(C)(C)=O)n1 (stereo not drawn) [Compound 76, 5-(3-((4-(1-(4-((5-bromo-4-((3-(dimethylphosphoryl)-[1,1′-biphenyl]-4-yl)amino)pyrimidin-2-yl)amino)-5-methoxy-2-(1-methyl-1H-pyrazol-4-yl)phenyl)piperidin-4-yl)piperazin-1-yl)methyl)pyrrolidin-1-yl)-2-(2,6-dioxopiperidin-3-yl)isoindoline-1,3-dione]
< 100 nM | 84 nM | ≥ 10000 nM |  |  | 8430 ng·h/mL | COc1cc(N2CCC(CN3CCC4(CCCN(c5ccc6c(c5)C(=O)N(C5CCC(=O)NC5=O)C6=O)C4)CC3)CC2)c(-c2cnn(C)c2)cc1Nc1ncc(Cl)c(Nc2ccc(-c3ccccc3)cc2P(C)(C)=O)n1 (stereo not drawn) [Compound 89, 5-(9-((1-(4-((5-chloro-4-((3-(dimethylphosphoryl)-[1,1′-biphenyl]-4-yl)amino)pyrimidin-2-yl)amino)-5-methoxy-2-(1-methyl-1H-pyrazol-4-yl)phenyl)piperidin-4-yl)methyl)-2,9-diazaspiro[5.5]undecan-2-yl)-2-(2,6-dioxopiperidin-3-yl)isoindoline-1,3-dione]
< 100 nM | 49 nM | ≥ 10000 nM |  |  | 4620 ng·h/mL | COc1cc(N2CCC(N3CCN(CC4CCN(c5cc6c(cc5F)C(=O)N(C5CCC(=O)NC5=O)C6=O)CC4)CC3)CC2)c(-c2cnn(C)c2)cc1Nc1ncc(Cl)c(Nc2ccc(-c3ccccc3)cc2P(C)(C)=O)n1 (stereo not drawn) [Compound 93, 5-(4-((4-(1-(4-((5-chloro-4-((3-(dimethylphosphoryl)-[1,1′-biphenyl]-4-yl)amino)pyrimidin-2-yl)amino)-5-methoxy-2-(1-methyl-1H-pyrazol-4-yl)phenyl)piperidin-4-yl)piperazin-1-yl)methyl)piperidin-1-yl)-2-(2,6-dioxopiperidin-3-yl)-6-fluoroisoindoline-1,3-dione]
< 100 nM | 29 nM | ≥ 10000 nM |  |  | 24700 ng·h/mL | COc1cc(N2CCC(N3CCN(CC4CCN(c5ccc6c(c5)C(=O)N(C5CCC(=O)NC5=O)C6=O)CC4)CC3)CC2)c(-c2cnn(C)c2)cc1Nc1ncc(Br)c(Nc2ccc3ccccc3c2P(C)(C)=O)n1 (stereo not drawn) [Compound 71, 5-(4-((4-(1-(4-((5-bromo-4-((1-(dimethylphosphoryl)naphthalen-2-yl)amino)pyrimidin-2-yl)amino)-5-methoxy-2-(1-methyl-1H-pyrazol-4-yl)phenyl)piperidin-4-yl)piperazin-1-yl)methyl)piperidin-1-yl)-2-(2,6-dioxopiperidin-3-yl)isoindoline-1,3-dione]
< 100 nM | 60 nM | ≥ 10000 nM |  |  | 3730 ng·h/mL | COc1cc(N2CCC(CN3CCC4(CCCN(c5ccc6c(c5)C(=O)N(C5CCC(=O)NC5=O)C6=O)C4)CC3)CC2)c(-c2cnn(C)c2)cc1Nc1ncc(Br)c(Nc2ccc(-c3ccccc3)cc2P(C)(C)=O)n1 (stereo not drawn) [Compound 38, 5-(9-((1-(4-((5-bromo-4-((3-(dimethylphosphoryl)-[1,1′-biphenyl]-4-yl)amino)pyrimidin-2-yl)amino)-5-methoxy-2-(1-methyl-1H-pyrazol-4-yl)phenyl)piperidin-4-yl)methyl)-2,9-diazaspiro[5.5]undecan-2-yl)-2-(2,6-dioxopiperidin-3-yl)isoindoline-1,3-dione]
< 100 nM | 32 nM | ≥ 10000 nM |  |  | 7790 ng·h/mL | COc1cc(N2CCC(CN3CCC4(CC3)CCN(c3ccc5c(c3)C(=O)N(C3CCC(=O)NC3=O)C5=O)CC4)CC2)c(-c2cnn(C)c2)cc1Nc1ncc(Cl)c(Nc2ccc(-c3ccccc3)cc2P(C)(C)=O)n1 (stereo not drawn) [Compound 48, 5-(9-((1-(4-((5-chloro-4-((3-(dimethylphosphoryl)-[1,1′-biphenyl]-4-yl)amino)pyrimidin-2-yl)amino)-5-methoxy-2-(1-methyl-1H-pyrazol-4-yl)phenyl)piperidin-4-yl)methyl)-3,9-diazaspiro[5.5]undecan-3-yl)-2-(2,6-dioxopiperidin-3-yl)isoindoline-1,3-dione]
< 100 nM | 30 nM | ≥ 10000 nM |  |  | 19900 ng·h/mL | COc1cc(N2CCC(N3CCN(CC4CCN(c5ccc6c(c5)C(=O)N(C5CCC(=O)NC5=O)C6=O)CC4)CC3)CC2)c(-c2cnn(C)c2)cc1Nc1ncc(Br)c(Nc2ccc(C3CC3)cc2P(C)(C)=O)n1 (stereo not drawn) [Compound 55, 5-(4-((4-(1-(4-((5-bromo-4-((4-cyclopropyl-2-(dimethylphosphoryl)phenyl)amino)pyrimidin-2-yl)amino)-5-methoxy-2-(1-methyl-1H-pyrazol-4-yl)phenyl)piperidin-4-yl)piperazin-1-yl)methyl)piperidin-1-yl)-2-(2,6-dioxopiperidin-3-yl)isoindoline-1,3-dione]
